Values quoted from earlier work as cited in PubChem BioAssay AID1259409 (Chemical Carcinogenesis Research Information System (CCRIS), 2018).

Tested on: rodent chemically induced tumor inhibition, incidence and multiplicity
Assay: CCRIS tumor inhibitor studies
Conditions: 64091-91-4, Promoter: NONE USED
Source text: The CCRIS database contains chemical records with carcinogenicity, mutagenicity, tumor promotion, and tumor inhibition test results. It was developed by the National Cancer Institute (NCI). Data are derived from studies cited in primary journals, current awareness tools, NCI reports, and other sources. Test results have been reviewed by experts in carcinogenesis and mutagenesis.
CCRIS provides historical information from the years 1985 - 2011. It is no longer updated.
This is an archive assay for CCRIS tumor inhibitor studies.

Compound: S=C=NCCc1ccccc1
- tumour outcome (control, treated, inhibition, significance) (Carcinogen: 4-(METHYLNITROSAMINO)-1-(3-PYRIDYL)-1-BUTANONE, Dose [Inhibitor]: 3 UMOL/G DIET BEGINNING 1 WK PRIOR TO FIRST CARCINOGEN DOSE (STUDY DURATION: 104 WK), Route [Inhibitor]: ORAL, Species: RAT, Strain/Sex: F344/MALE, Target Tissue: Type of Lesion: HEMATOPOIETIC SYSTEM: LEUKEMIA OR LYMPHOMA, Dose [Carcinogen]: 1.76 MG/KG 3/WK FOR 20 WK): 5/40 (13%), 3/40 (8%), 38%, not calculated
- tumour outcome (control, treated, inhibition, significance) (Carcinogen: 4-(METHYLNITROSAMINO)-1-(3-PYRIDYL)-1-BUTANONE, Dose [Inhibitor]: 3 UMOL/G DIET BEGINNING 1 WK PRIOR TO FIRST CARCINOGEN DOSE (STUDY DURATION: 104 WK), Route [Inhibitor]: ORAL, Species: RAT, Strain/Sex: F344/MALE, Target Tissue: Type of Lesion: LUNG: ADENOMA OR CARCINOMA, Dose [Carcinogen]: 1.76 MG/KG 3/WK FOR 20 WK): 32/40 (80%), 17/40 (43%), 46%, p<0.05
- tumour outcome (control, treated, inhibition, significance) (Carcinogen: 4-(METHYLNITROSAMINO)-1-(3-PYRIDYL)-1-BUTANONE, Dose [Inhibitor]: 3 UMOL/G DIET BEGINNING 1 WK PRIOR TO FIRST CARCINOGEN DOSE (STUDY DURATION: 104 WK), Route [Inhibitor]: ORAL, Species: RAT, Strain/Sex: F344/MALE, Target Tissue: Type of Lesion: LUNG: ADENOMA OR HEPATOCELLULAR CARCINOMA, Dose [Carcinogen]: 1.76 MG/KG 3/WK FOR 20 WK): 15/40 (38%), 14/40 (35%), 8%, not calculated
- tumour outcome (control, treated, inhibition, significance) (Carcinogen: 4-(METHYLNITROSAMINO)-1-(3-PYRIDYL)-1-BUTANONE, Dose [Inhibitor]: 3 UMOL/G DIET BEGINNING 1 WK PRIOR TO FIRST CARCINOGEN DOSE (STUDY DURATION: 104 WK), Route [Inhibitor]: ORAL, Species: RAT, Strain/Sex: F344/MALE, Target Tissue: Type of Lesion: MAMMARY GLAND: ADENOCARCINOMA OR FIBROADENOMA OR FIBROMA, Dose [Carcinogen]: 1.76 MG/KG 3/WK FOR 20 WK): 5/40 (13%), 0/40 (0%), 100%, not calculated
- tumour outcome (control, treated, inhibition, significance) (Carcinogen: 4-(METHYLNITROSAMINO)-1-(3-PYRIDYL)-1-BUTANONE, Dose [Inhibitor]: 3 UMOL/G DIET BEGINNING 1 WK PRIOR TO FIRST CARCINOGEN DOSE (STUDY DURATION: 104 WK), Route [Inhibitor]: ORAL, Species: RAT, Strain/Sex: F344/MALE, Target Tissue: Type of Lesion: NASAL CAVITY: SQUAMOUS CELL PAPILLOMA OR TRANSITIONAL-CELL PAPILLOMA OR POLYP OR SQUAMOUS CELL CARCINOMA, Dose [Carcinogen]: 1.76 MG/KG 3/WK FOR 20 WK): 11/40 (28%), 7/40 (18%), 36%, not calculated
- tumour outcome (control, treated, inhibition, significance) (Carcinogen: 4-(METHYLNITROSAMINO)-1-(3-PYRIDYL)-1-BUTANONE, Dose [Inhibitor]: 3 UMOL/G DIET BEGINNING 1 WK PRIOR TO FIRST CARCINOGEN DOSE (STUDY DURATION: 104 WK), Route [Inhibitor]: ORAL, Species: RAT, Strain/Sex: F344/MALE, Target Tissue: Type of Lesion: PANCREAS: EXOCRINE ADENOCARCINOMA OR EXOCRINE ADENOMA, Dose [Carcinogen]: 1.76 MG/KG 3/WK FOR 20 WK): 1/40 (3%), 5/40 (13%), -333%, not calculated
- tumour outcome (control, treated, inhibition, significance) (Carcinogen: 4-(METHYLNITROSAMINO)-1-(3-PYRIDYL)-1-BUTANONE, Dose [Inhibitor]: 3 UMOL/G DIET BEGINNING 1 WK PRIOR TO FIRST CARCINOGEN DOSE (STUDY DURATION: 104 WK), Route [Inhibitor]: ORAL, Species: RAT, Strain/Sex: F344/MALE, Target Tissue: Type of Lesion: PERITONEUM: MESOTHELIOMA, Dose [Carcinogen]: 1.76 MG/KG 3/WK FOR 20 WK): 1/40 (3%), 2/40 (5%), -67%, not calculated
- tumour outcome (control, treated, inhibition, significance) (Carcinogen: 4-(METHYLNITROSAMINO)-1-(3-PYRIDYL)-1-BUTANONE, Dose [Inhibitor]: 3 UMOL/G DIET BEGINNING 1 WK PRIOR TO FIRST CARCINOGEN DOSE (STUDY DURATION: 104 WK), Route [Inhibitor]: ORAL, Species: RAT, Strain/Sex: F344/MALE, Target Tissue: Type of Lesion: STOMACH: SARCOMA OR PAPILLOMA, Dose [Carcinogen]: 1.76 MG/KG 3/WK FOR 20 WK): 5/40 (13%), 2/40 (5%), 62%, not calculated
- tumour outcome (control, treated, inhibition, significance) (Carcinogen: 4-(METHYLNITROSAMINO)-1-(3-PYRIDYL)-1-BUTANONE, Dose [Inhibitor]: 3 UMOL/G DIET BEGINNING 1 WK PRIOR TO FIRST CARCINOGEN DOSE (STUDY DURATION: 104 WK), Route [Inhibitor]: ORAL, Species: RAT, Strain/Sex: F344/MALE, Target Tissue: Type of Lesion: TESTES: TUMOR, Dose [Carcinogen]: 1.76 MG/KG 3/WK FOR 20 WK): 31/40 (78%), 31/40 (78%), 0%
- tumour outcome (control, treated, inhibition, significance) (Carcinogen: 4-(METHYLNITROSAMINO)-1-(3-PYRIDYL)-1-BUTANONE, Dose [Inhibitor]: 3 UMOL/G DIET BEGINNING 1 WK PRIOR TO FIRST CARCINOGEN DOSE (STUDY DURATION: 104 WK), Route [Inhibitor]: ORAL, Species: RAT, Strain/Sex: F344/MALE, Target Tissue: Type of Lesion: THYROID: MALIGNANT TUMOR OR BENIGN TUMOR, Dose [Carcinogen]: 1.76 MG/KG 3/WK FOR 20 WK): 1/40 (3%), 3/40 (8%), -166%, not calculated
- tumour outcome (control, treated, inhibition, significance) (Carcinogen: 4-(METHYLNITROSAMINO)-1-(3-PYRIDYL)-1-BUTANONE, Dose [Inhibitor]: 5 UMOL/D FOR 4 CONSECUTIVE DAYS (STUDY DURATION: 16 WK), Route [Inhibitor]: GAVAGE, Species: MOUSE, Strain/Sex: STRAIN-A/FEMALE, Target Tissue: Type of Lesion: LUNG: ADENOMA, Dose [Carcinogen]: 10 UMOL ONCE 2 HR POST LAST AGENT DOSE): 30/30 (100%), 18/20 (89%), 11%, not calculated
- tumour outcome (control, treated, inhibition, significance) (Carcinogen: 4-(METHYLNITROSAMINO)-1-(3-PYRIDYL)-1-BUTANONE, Dose [Inhibitor]: 25 UMOL/D FOR 4 CONSECUTIVE DAYS (STUDY DURATION: 16 WK), Route [Inhibitor]: GAVAGE, Species: MOUSE, Strain/Sex: STRAIN-A/FEMALE, Target Tissue: Type of Lesion: LUNG: ADENOMA, Dose [Carcinogen]: 10 UMOL ONCE 2 HR POST LAST AGENT DOSE): 30/30 (100%), 6/20 (30%), 70%, p<0.01
- tumour outcome (control, treated, inhibition, significance) (Carcinogen: 4-(N-NITROSOMETHYLAMINO)-1-(3-PYRIDYL)-1-BUTANONE, Dose [Inhibitor]: 0, 3 UMOL/G DIET BEGINNING 1 WK PRIOR TO CARCINOGEN TREATMENT AND CONTINUING FOR 21 WK (STUDY DURATION: 104 WK), Route [Inhibitor]: ORAL, Species: RAT, Strain/Sex: F344/MALE, Target Tissue: Type of Lesion: LIVER: ADENOMA, Dose [Carcinogen]: 1.76 MG/KG 3/WK FOR 20 WK): 12/40 (30%), 9/40 (23%), 23%, not calculated
- tumour outcome (control, treated, inhibition, significance) (Carcinogen: 4-(N-NITROSOMETHYLAMINO)-1-(3-PYRIDYL)-1-BUTANONE, Dose [Inhibitor]: 0, 3 UMOL/G/DIET BEGINNING 1 WK PRIOR TO CARCINOGEN TREATMENT AND CONTINUING FOR 21 WK (STUDY DURATION: 104 WK), Route [Inhibitor]: ORAL, Species: RAT, Strain/Sex: F344/MALE, Target Tissue: Type of Lesion: LIVER: CARCINOMA, Dose [Carcinogen]: 1.76 MG/KG 3/WK FOR 20 WK): 3/40 (8%), 5/40 (13%), -62%, not calculated
- tumour outcome (control, treated, inhibition, significance) (Carcinogen: 4-(N-NITROSOMETHYLAMINO)-1-(3-PYRIDYL)-1-BUTANONE, Dose [Inhibitor]: 0, 3 UMOL/G/DIET BEGINNING 1 WK PRIOR TO CARCINOGEN TREATMENT AND CONTINUING FOR 21 WK (STUDY DURATION: 104 WK), Route [Inhibitor]: ORAL, Species: RAT, Strain/Sex: F344/MALE, Target Tissue: Type of Lesion: LUNG: ADENOMA, Dose [Carcinogen]: 1.76 MG/KG 3/WK FOR 20 WK): 8/40 (20%), 5/40 (13%), 35%, not calculated
- tumour outcome (control, treated, inhibition, significance) (Carcinogen: 4-(N-NITROSOMETHYLAMINO)-1-(3-PYRIDYL)-1-BUTANONE, Dose [Inhibitor]: 0, 3 UMOL/G/DIET BEGINNING 1 WK PRIOR TO CARCINOGEN TREATMENT AND CONTINUING FOR 21 WK (STUDY DURATION: 104 WK), Route [Inhibitor]: ORAL, Species: RAT, Strain/Sex: F344/MALE, Target Tissue: Type of Lesion: LUNG: CARCINOMA, Dose [Carcinogen]: 1.76 MG/KG 3/WK FOR 20 WK): 24/40 (60%), 12/40 (30%), 50%, not calculated
